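96-well plates; 48 h exposure; 5 concentrations. Endpoints by linear interpolation between flanking doses. Not reached: highest tested concentration assigned. GI50 marks 50% less growth.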 Calls of active or inactive are those of the source. Rule as the data show it: active = GI50 up to about 1.1 µM and inactive = higher.
What was measured:
Experiment in all cases: NCI tumour cell line growth inhibition, 48 h
HT-29 = system: HT-29
K562 = system: K562
RXF 393 = system: RXF 393
IGROV-1 = system: IGROV-1
A498 = system: A498
CCRF-CEM = system: CCRF-CEM
HCC 2998 = system: HCC 2998
UO-31 = system: UO-31
SF-539 = system: SF-539
NCI-H226 = system: NCI-H226
T47D = system: T47D
NCI-H460 = system: NCI-H460
MCF7 = system: MCF7
HCT-116 = system: HCT-116
OVCAR-5 = system: OVCAR-5
EKVX = system: EKVX
Malme-3M = system: Malme-3M
SK-OV-3 = system: SK-OV-3
BT-549 = system: BT-549
M14 = system: M14
UACC-62 = system: UACC-62
HL-60 = system: HL-60
KM12 = system: KM12
Hs-578T = system: Hs-578T
COLO 205 = system: COLO 205
NCI/ADR-RES = system: NCI/ADR-RES
HOP-92 = system: HOP-92
SK-MEL-28 = system: SK-MEL-28
RPMI-8226 = system: RPMI-8226
A549 = system: A549
SF-295 = system: SF-295
SN12C = system: SN12C
PC-3 = system: PC-3
CAKI-1 = system: CAKI-1
OVCAR-4 = system: OVCAR-4
ACHN = system: ACHN
HCT-15 = system: HCT-15
TK-10 = system: TK-10
SK-MEL-2 = system: SK-MEL-2
NCI-H522 = system: NCI-H522
MOLT-4 = system: MOLT-4
SR = system: SR
786-0 = system: 786-0
SF-268 = system: SF-268
SNB-19 = system: SNB-19
NCI-H23 = system: NCI-H23
DU-145 = system: DU-145
MDA-MB-435 = system: MDA-MB-435
MDA-MB-231 = system: MDA-MB-231
OVCAR-3 = system: OVCAR-3
OVCAR-8 = system: OVCAR-8
SK-MEL-5 = system: SK-MEL-5
UACC-257 = system: UACC-257
U-251 = system: U-251
HOP-62 = system: HOP-62

`CCOC(=O)/C(C#N)=C(/NS(=O)(=O)c1cc(C)c(Cl)cc1[S-])[n+]1ccc(N(C)C)cc1` was tested, and the GI50 (HT-29) was > 100 µM (inactive), the GI50 (K562) was > 100 µM (inactive) and the GI50 (RXF 393) was > 100 µM (inactive). For the same compound, the GI50 (IGROV-1) was > 100 µM (inactive), the GI50 (A498) was > 100 µM (inactive) and the GI50 (CCRF-CEM) was > 100 µM (inactive). The GI50 (HCC 2998) was > 100 µM (inactive), the GI50 (UO-31) was > 100 µM (inactive) and the GI50 (SF-539) was > 100 µM (inactive). For the same compound, the GI50 (NCI-H226) was > 100 µM (inactive), the GI50 (T47D) was > 100 µM (inactive) and the GI50 (NCI-H460) was > 100 µM (inactive). The GI50 (MCF7) was > 100 µM (inactive), the GI50 (HCT-116) was > 100 µM (inactive) and the GI50 (OVCAR-5) was > 100 µM (inactive). For the same compound, the GI50 (EKVX) was > 100 µM (inactive), the GI50 (Malme-3M) was > 100 µM (inactive) and the GI50 (SK-OV-3) was > 100 µM (inactive). The GI50 (BT-549) was > 100 µM (inactive), the GI50 (M14) was > 100 µM (inactive) and the GI50 (UACC-62) was > 100 µM (inactive). For the same compound, the GI50 (HL-60) was > 100 µM (inactive), the GI50 (KM12) was > 100 µM (inactive) and the GI50 (Hs-578T) was > 100 µM (inactive). For the same compound, the GI50 (COLO 205) was > 100 µM (inactive), the GI50 (NCI/ADR-RES) was > 100 µM (inactive) and the GI50 (HOP-92) was 27.4 µM (inactive). For the same compound, the GI50 (SK-MEL-28) was > 100 µM (inactive), the GI50 (RPMI-8226) was > 100 µM (inactive) and the GI50 (A549) was > 100 µM (inactive). For the same compound, the GI50 (SF-295) was > 100 µM (inactive), the GI50 (SN12C) was > 100 µM (inactive) and the GI50 (PC-3) was > 100 µM (inactive). For the same compound, the GI50 (CAKI-1) was > 100 µM (inactive), the GI50 (OVCAR-4) was > 100 µM (inactive) and the GI50 (ACHN) was > 100 µM (inactive). For the same compound, the GI50 (HCT-15) was greater than 100 µM, the GI50 (TK-10) was > 100 µM (inactive) and the GI50 (SK-MEL-2) was > 100 µM (inactive). The GI50 (NCI-H522) was > 100 µM (inactive), the GI50 (MOLT-4) was > 100 µM (inactive) and the GI50 (SR) was > 100 µM (inactive). For the same compound, the GI50 (786-0) was > 100 µM (inactive), the GI50 (SF-268) was > 100 µM (inactive) and the GI50 (SNB-19) was > 100 µM (inactive). The GI50 (NCI-H23) was > 100 µM (inactive), the GI50 (DU-145) was > 100 µM (inactive) and the GI50 (MDA-MB-435) was > 100 µM (inactive). The GI50 (MDA-MB-231) was > 100 µM (inactive), the GI50 (OVCAR-3) was > 100 µM (inactive) and the GI50 (OVCAR-8) was > 100 µM (inactive). The GI50 (SK-MEL-5) was > 100 µM (inactive), the GI50 (UACC-257) was > 100 µM (inactive) and the GI50 (U-251) was > 100 µM (inactive). The GI50 (HOP-62) was > 100 µM (inactive).
